8 compounds from PubChem BioAssay (NCI) can be followed below.

Each structure is given as a SMILES string. Where “and” joins values, the source holds several entries; their conditions need not be identical. Identical values can stand only once.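 In this assay, cells in 96-well plates receive the compound at five concentrations for 48 hours. Endpoints are linearly interpolated between the surrounding concentrations. The concentration for 50% growth inhibition is given as GI50. TGI: total growth inhibition.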 Some results are limits rather than exact numbers.

What all share (test): DTP human tumour cell line panel, 48 h
The test system of test [1] is A549 NSCLC.
Test [2] relates to A498 renal.
For test [3], the system named is MOLT-4 leukemia.
The test system of test [4] is SK-MEL-5 melanoma.
For test [5], the system named is DU-145 prostate.
Test [6] relates to NCI-H23 lung.
Test [7] relates to PC-3 prostate.
Test [8] relates to OVCAR-3 ovarian.
The test system of test [9] is SF-539 CNS.
Test [10] deals with K-562 leukemia.

For orientation: TGI means the concentration giving total growth inhibition. A high value points to less potent growth arrest. Consider `NCC(=O)NC(CO)C(=O)O` (centres undefined), for which the TGI in [1], in test [2], in test [3], in [4], in test [5] and in [6] was > 100000 nM in each case. For the same compound, the TGI in test [7], in test [8], in [9] and in [10] was > 100000 nM each time.

As usually defined, the GI50 is the concentration at which growth is held to half of that of the control. For the compound `CNC(=O)c1c(NC(=O)c2ccc(C(C)C)cc2)sc2c1CCC(=O)C2`, the GI50 in test [1] is 401 nM; in [2], 715 nM; in [3], 500 nM; in test [4], 605 nM; in test [5], 3250 nM; in [6] it was 418 nM. In addition, the 50% growth inhibitory concentration (GI50) is 152 nM in test [7], 423 nM in [8], 306 nM in test [9] and 108 nM in [10]. For the same compound, the TGI in test [1] was determined as 5450 nM; in test [2], 3780 nM; in test [3], 7910 nM; in test [4], 1700 nM; in [5], 12200 nM; in test [6], 3920 nM. Besides, the TGI is 1320 nM in test [7], 1570 nM in [8], 1220 nM in test [9] and > 100000 nM in [10].

For `C/C=C1\C[C@@H]2C(OC)Nc3cc(O)c(OC)cc3C(=O)N2C1` (some centres undefined), the 50% growth inhibitory concentration (GI50) in test [1] was 21.5 nM; in [3], 2.48 nM; in test [4] it was 3.27 nM; in test [5], 3.48 nM; in [6], 2.62 nM; in test [7] it was 22.1 nM. In addition, the GI50 in test [8] is 4.19 nM; in test [9], 3.15 nM; in test [10], 3.47 nM. The TGI in test [1] was > 100000 nM; in test [2] it was 83.4 nM; in test [3] it was 225 nM; in [4] it was 8.89 nM; in [5], 24.8 nM and 210 nM; in [6], 8.92 nM. For the same compound, the concentration for total growth inhibition (TGI) in [7] was 404 nM and 478 nM; in test [8], 34.1 nM; in [9], 8.92 nM and < 28.3 nM; in test [10], 2740 nM.

As for `COC(=O)c1cc(NC(=O)CN(CCN(CC(=O)O)CC(=O)Nc2ccc(O)c(C(=O)OC)c2)CC(=O)O)ccc1O`, the GI50 in test [1] was 64800 nM; in test [2], 71700 nM; in [3], 28500 nM; in test [4], 47200 nM; in [5] it was 31900 nM; in test [6], 78900 nM. Further, the GI50 is 96200 nM in [7], > 100000 nM in [8], 29400 nM in [9] and 96400 nM in test [10]. Further, the concentration for total growth inhibition (TGI) in test [1], in test [2], in test [3], in test [4], in [5] and in test [6] was > 100000 nM throughout. In addition, the TGI in test [7], in test [8], in test [9] and in [10] was > 100000 nM in each case.

Take `CC(=O)OC1CC(C)c2c(Cl)ncnc21` (centres undefined): the GI50 in test [1], in test [2], in [3], in test [4], in test [5] and in test [6] was > 100000 nM each time. For the same compound, the GI50 in test [7], in test [8], in [9] and in test [10] was > 100000 nM in each case. The concentration for total growth inhibition (TGI) in test [1], in test [2], in [3], in test [4], in test [5] and in test [6] was > 100000 nM throughout. For the same compound, the TGI in [7], in [8], in [9] and in test [10] was > 100000 nM each time.

On to `N#C/C(=C\c1ccc([N+](=O)[O-])s1)c1nc2cc(Br)ccc2s1`, for which the GI50 in test [1] is 509 nM; in [2] it was 8050 nM; in test [3] it was 335 nM; in test [4] it was 167 nM; in [5], 719 nM; in test [6], 279 nM. Moreover, the GI50 was 435 nM in [7], 248 nM in [8], 236 nM in [9] and 56.1 nM in test [10]. The TGI in test [1] is > 100000 nM; in test [2], > 100000 nM; in test [3], > 35500 nM; in test [4], 311 nM; in test [5], > 100000 nM; in test [6], 1350 nM. In addition, the TGI in test [7] is 2540 nM; in test [8] it was 733 nM; in test [9], 638 nM; in [10], > 40600 nM.

For the compound `COc1ccc(CCN2COc3ccc4ccc(=O)oc4c3C2)cc1OC`, the concentration for total growth inhibition (TGI) in [1], in [2], in test [3], in test [4], in test [5] and in [6] was > 100000 nM each time. The TGI in [7], in test [8], in test [9] and in [10] was > 100000 nM in each case.

In the case of `Cc1nc2sc(C(=O)Nc3cccc(Cl)c3C)c(N)c2cc1C(=O)c1ccccc1`, the GI50 in [1] is 245 nM; in test [2] it was 124 nM; in test [3] it was 254 nM; in test [4] it was 278 nM; in test [5], 524 nM; in [6], 1140 nM. Also, the 50% growth inhibitory concentration (GI50) in [7] is 258 nM; in [8], 176 nM; in [9], 159 nM; in test [10], 199 nM. Besides, the TGI is > 50000 nM in [1]; 1640 nM in [2]; > 50000 nM in test [3]; 6130 nM in test [4]; > 50000 nM in test [5]; > 50000 nM in [6]. Further, the TGI in [7] is > 50000 nM; in test [8] it was 1370 nM; in test [9], 915 nM; in [10], > 50000 nM.
